Test results from patent publication US8551951B2, “Pharmaceutical preparations and methods for inhibiting tumors” (Aenorasis SA Pharmaceuticals and Medical Devices, priority 2000, dated 2013).
Peptide text beside a SMILES is read from it.

Assays:
PC-3 cells [1] = test: Apoptosis assay by ELISA plus; type: cell-based, human; conditions: for apoptotic cell death effect: 22.5 μM to 90 μM, 72 hours
Experimental: The three polypeptides (SEQ ID NO: 4, SEQ ID NO: 5 and SEQ ID NO 6) and native PSP94 used here as a positive control were tested in ELISA plus assay to measure cell death through apoptosis. Briefly, the ELISA plus assay is a sandwich enzyme immunoassay able to measure mono- and oligonucleosomes present in the cytoplasmic fraction of cell lysate using two antibodies, one directed against DNA and the other directed against histones. The apoptotic cell death is characterized by activation of endogenous endonucleases (e.g., calcium- and magnesium-dependant), which cleave double-stranded DNA at the most accessible internucleosomal linker region, generating mono- and oligonucleosomes. The enrichment of mono- and oligonucleosomes in the cytoplasm of the apoptotic cells is due to the fact that DNA degradation occurs several hours before plasma membrane breakdown.
Four thousand cells were seeded in Costar 96 well cell culture flat bottom plates in RPMI supplemented media containing 50 μg/ml of bovine serum albumin (BSA) and 0.1 μM FeSO4. The PC-3 cells were treated with various concentrations (22.5 μM to 90 μM) of polypeptides for 72 hours. Apoptosis assay was done as per manufacturer's instructions using the ApopTag kit (Boeringher Mannheim).

PC-3 cells [2] = test: DNA fragmentation assay (DNA ladder, apoptosis); type: cell-based, human; conditions: for DNA laddering effect: various concentrations
Outline: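 PC-3 cells were exposed for 72 h to the polypeptides at various concentrations, PCK3145 at 500 μg/ml in supplemented medium; untreated cells and doxorubicin served as controls. Isolated DNA was run on 1.2% agarose with ethidium bromide, and a DNA ladder was scored as apoptotic fragmentation.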

[3] = tested on: human prostate cancer cells PC-3; test: MTS assay, growth inhibitory effect on PC-3 cells; type: cell-based; conditions: for growth inhibition of PC-3 cells (FIG. 10): 72 hours
Description: Cell proliferation was monitored on PC-3 cells using the MTS/PMS (phenazine methosulfate) kit (Promega), which primarily measures mitochondrial activity of live cells. The basic principle of this method involves the fact that the mitochondrial enzymes of the live cells metabolize the MTS/PMS dyes forming a brown colored precipitate which can be measured as optical density (OD) by absorption at 490 nm in a spectrophotometer. Therefore, the OD values are proportional to the number of living cells. In addition, monitoring of cell morphology was also performed. Cell morphology would be indicative of their health status. For example, viable cells would appear adherent and spread out whereas dead cells would be in suspension in the media and would appear granular and round.
PC-3 cells (ATCC, Lot AT06) used in these experiments were at a passage number lower or equal to 70 (n≧70). Cells were seeded in Costar 96 well cell culture flat bottom plates in RPMI supplemented media containing 50 μg/ml of bovine serum albumin (BSA) and 0.1 μM FeSO4. Peptide was diluted in the same media. Cells were continuously exposed to the polypeptides of the present invention for 72 hours without changing media. Native PSP94 or rHuPSP94 concentrated two fold were directly added to wells and diluted to 1× in order to minimize cell manipulation and avoid detachment.
Native PSP94, rHuPSP94, polypeptide 22-36 and PB111 polypeptide (scrambled polypeptide) were also included in this experiment as controls. Cell proliferation assay was performed on either PC-3 cells or normal fibroblasts (used here as control) using the MTS/PMS kit (Promega). Four thousand cells (FIGS. 9 and 10) or three thousand (FIG. 11) cells were seeded in Costar 96 well cell culture flat bottom plates in RPMI supplemented media containing 50 μg/ml of bovine serum albumin (BSA) and 0.1 μM FeSO4. In addition, monitoring of cell morphology was also performed.
This assay measures the mitochondrial activity of the live cells. The basic principle of this method involves the fact that the mitochondrial enzymes of the live cells metabolize the MTS/PMS dyes forming a brown colored precipitate which can be measured as optical density (OD) by absorption at 490 nm in a spectrophotometer. Therefore, the OD values are proportional to the number of living cells.
In addition, a visual observation of the cells was also done to check the cell morphology, which could also be indicative of cell growth. The following conditions for MTS assay were used: PC-3 (ATCC, Lot AT06), passage number n≧70, cell line adapted to grow in serum-free OPTI-MEM and in RPMI supplemented with BSA (50 μg/ml) and Ferrous Sulfate (0.1 μM), continuous exposure for up to 72 hours without changing media (i.e., adding PCK3145 at 2× concentration directly to wells and diluting it 1:2 to 1× to minimize cell manipulation and avoid detachment).

C[C@@H](O)[C@H](NC(=O)[C@H](CCC(=O)O)NC(=O)[C@H](Cc1ccc(O)cc1)NC(=O)[C@H](CS)NC(=O)[C@@H](NC(=O)[C@H](CS)NC(=O)[C@@H](NC(=O)[C@H](CCC(=O)O)NC(=O)[C@H](CS)NC(=O)[C@H](CC(N)=O)NC(=O)[C@H](CC(=O)O)NC(=O)[C@@H](NC(=O)[C@H](CCC(N)=O)NC(=O)[C@H](Cc1c[nH]c2ccccc12)NC(=O)[C@@H](N)CCC(=O)O)[C@@H](C)O)[C@@H](C)O)[C@@H](C)O)C(=O)O [PCK3145, EWQTDNCETCTCYET] (H-EWQTDNCETCTCYET-OH; N-terminus and C-terminus assumed)
apoptotic cell death effect (PC-3 cells [1]): dose dependent increase in the apoptotic cell death effect | apoptotic cell death, potency relative to the other polypeptides (PC-3 cells [1]; 90 μM): more potent than the other polypeptides | DNA laddering effect (FIG. 7 lane 5) (PC-3 cells [2]; 22.5 μM): DNA laddering effect | DNA laddering effect (FIG. 7 lane 6) (PC-3 cells [2]; 45 μM): DNA laddering effect | DNA fragmentation (FIG. 25) (PC-3 cells [2]; 500 μg/ml, 72 hours, supplemented media): resulted in DNA fragmentation | DNA laddering effect (PC-3 cells [2]; 72 hours): induced a DNA laddering effect characteristic of apoptosis | inhibitory effect on the growth of PC-3 cells ([3]; 0 to 400 μg/ml, tests repeated 5 times): dose dependent inhibitory effect | growth inhibition of PC-3 cells (FIG. 10) [3]: significant growth inhibition

polypeptide 7-21: PSP94 derived synthetic polypeptide from the amino terminus end, SEQ ID NO: 4 (NEGVPGDSTRKCMDL; Polypeptide 7-21)
apoptotic cell death effect (PC-3 cells [1]): dose dependent increase in the apoptotic cell death effect | DNA laddering effect (PC-3 cells [2]; 72 hours): induced a DNA laddering effect characteristic of apoptosis | growth inhibition of PC-3 cells (FIG. 10) [3]: significant growth inhibition
